{"source": "patent EP0966963A1", "about": "“Use of indigoid bisindole derivatives as CDK1 inhibitors” (Eisenbrand, Gerhard, Prof. Dr., priority 1998, dated 1999)", "key": {"PKA": {"tested_on": "PKA", "conditions": "known chemical inhibitors, Meijer 1996; cited from earlier work"}, "p34^cdc2/cyclin B": {"target": "p34^cdc2/cyclin B", "test": "p34cdc2/cyclin B kinase assay (histone H1 phosphorylation, [32P]ATP)", "type": "biochemical, starfish (Marthasterias glacialis)", "conditions": "1 mg histone H1/ml, 15 µM ATP, 10 min at 30°C", "protocol": "J. Biochem., 243, (1997), 527-536). […] After 10 min. incubation at 30°C, 25 μl aliquots of supernatant were spotted onto 2.5 x 3 cm pieces of Whatman P81 phosphocellulose paper, and after 20 sec., the filters were washed five times (for at least 5 min. each time) in a solution of 10 ml phosphoric acid/liter of water. The wet filters were transferred into 6 ml plastic scintillation vials, 5 ml ACS (Amersham) scintillation fluid was added and the radioactivity measured in a Packard scintillation counter."}, "cdc25": {"tested_on": "cdc25", "test": "cdc25 inhibition (specificity panel)", "type": "biochemical"}, "[1]": {"target": "cAMP-dependent protein kinase", "test": "PKA inhibition (specificity panel)", "type": "biochemical"}, "[2]": {"target": "Ca^2+- dependent protein kinase", "test": "PKC inhibition (specificity panel)", "type": "biochemical"}, "CDK4": {"target": "CDK4 (Homo sapiens, UniProt P11802)", "sequence (P11802 whole entry, species assumed)": "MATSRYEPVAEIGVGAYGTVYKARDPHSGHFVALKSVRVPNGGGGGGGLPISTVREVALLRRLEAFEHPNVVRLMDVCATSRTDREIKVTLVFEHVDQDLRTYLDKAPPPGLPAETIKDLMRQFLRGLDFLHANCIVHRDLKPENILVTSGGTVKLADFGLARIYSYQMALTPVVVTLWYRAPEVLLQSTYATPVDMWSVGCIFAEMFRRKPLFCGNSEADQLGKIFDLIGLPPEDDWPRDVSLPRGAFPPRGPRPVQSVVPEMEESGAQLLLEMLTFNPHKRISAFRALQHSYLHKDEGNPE", "sequence (P24385 whole entry partner, species assumed)": "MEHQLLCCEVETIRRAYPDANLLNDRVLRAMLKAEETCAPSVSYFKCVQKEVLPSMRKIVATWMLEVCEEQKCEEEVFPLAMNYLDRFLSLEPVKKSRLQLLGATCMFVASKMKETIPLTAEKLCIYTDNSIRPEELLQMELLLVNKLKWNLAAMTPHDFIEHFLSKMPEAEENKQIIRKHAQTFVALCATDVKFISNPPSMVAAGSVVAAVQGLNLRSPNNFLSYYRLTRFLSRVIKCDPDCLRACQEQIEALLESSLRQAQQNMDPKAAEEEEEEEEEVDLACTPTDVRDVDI", "conditions": "known chemical inhibitors, Meijer 1996; cited from earlier work"}}, "note": "pIC50: −log10 of the molar value.", "data": [{"compound": "CN1CC[C@H](c2c(O)cc(O)c3c(=O)cc(-c4ccccc4Cl)oc23)[C@H](O)C1", "note": "[Flavopiridol]", "values": [{"measurement": "pIC50", "setting": "PKA", "value": 3.84}]}, {"compound": "O=C1Nc2ccccc2C1=C1Nc2ccccc2C1=O", "note": "[Example 1, Indirubine]", "values": [{"measurement": "pIC50", "setting": "p34^cdc2/cyclin B", "value": 5.70}, {"measurement": "pIC50", "setting": "cdc25", "value": 3.82}, {"measurement": "IC50 PKA", "setting": "[1]", "value": "no Effect"}, {"measurement": "IC50 PKC", "setting": "[2]", "value": "no Effect"}]}, {"compound": "COC(=O)[C@@]1(Cc2ccc(O)c(CC=C(C)C)c2)OC(=O)C(O)=C1c1ccc(O)cc1", "note": "[Butyrolactone-l]", "values": [{"measurement": "IC50 CDK4", "setting": "CDK4", "value": "no effect"}, {"measurement": "pIC50", "setting": "PKA", "value": 3.59}]}, {"compound": "O=C1Nc2ccc(I)cc2C1=C1Nc2ccccc2C1=O", "note": "[Example 2, 5-Iodoindirubine]", "values": [{"measurement": "IC50 PKA", "setting": "[1]", "value": "no Effect"}, {"measurement": "IC50 PKC", "setting": "[2]", "value": "no Effect"}]}, {"compound": "O=C1Nc2ccccc2C1=C1Nc2ccccc2C1=NO", "note": "[Example 10, Indirubine-3'-oxime]", "values": [{"measurement": "pIC50", "setting": "p34^cdc2/cyclin B", "value": 6.74}]}]}
